Test results taken from PMC2829070 (PLoS Pathogens, 2010).
Several values for one entry are separate records, joined by “and”; a condition that tells them apart may be missing. Identical values can stand only once.

What was measured:
[1] = tested on: HN30408cl7 (H5N1); assay type: in vivo, BALB/c mice; settings: 21 days
[2] = tested on: HN30408cl7 (H5N1); parameters: species or system BALB/c mice; Virus titers in Lungs, Day 6 / Virus titers in Lungs, Day 9 / Virus titers in Brain, Day 9: unit not given here; settings: mouse, in vivo
[3] = tested on: HN30408cl7 (H5N1); parameters: species or system BALB/c mice; Virus titer in Lungs, Day 3 / Virus titer in Lungs, Day 6: unit not given here; settings: mouse, in vivo
[4] = tested on: Ind3006 (H5N1); assay type: in vivo, BALB/c mice; settings: 21 days
[5] = tested on: Ind3006 (H5N1); parameters: species or system BALB/c mice; Virus titers in Lungs, Day 6 / Virus titers in Brain, Day 6: unit not given here; settings: mouse, in vivo
[6] = tested on: HN30408cl7 (H5N1); parameters: species or system BALB/c mice; settings: mouse, in vivo
[7] = tested on: NA of A/Panama/2007/99 (H3N2); assay type: binding, influenza A virus (H3N2)
[8] = tested on: NA of B/Mie/1/93; assay type: binding, influenza B virus
[9] = tested on: NA of A/New Caledonia/20/99 (H1N1); assay type: binding, influenza A virus (H1N1)
[10] = target: NA of Ind3006 (A/Indonesia/UT3006/05, H5N1) (Influenza A virus, UniProt I6YWY9); experiment: biochemical

Compound | mice protected from lethal infection [1] | Virus titers in Brain, Day 3 [2] | Virus titer in Brain, Day 3 [3] | mice protected from lethal infection [4] | Virus titers in Brain, Day 3 [5] | Virus titers in Brain, Day 6 [5] | Virus titers in Brain, Day 9 [5] | Virus titers in Lungs, Day 6 [5] | Virus titers in Lungs, Day 9 [5] | prophylactic efficacy (survival) [6] | Slope of the dissociation curve [7] | Slope of the dissociation curve [8] | Slope of the dissociation curve [9] | IC50 [10] [nM] | also measured
[H]/N=C(\N)N[C@H]1C=C(C(=O)O)O[C@@H]([C@H](OC)[C@H](O)COC(=O)CCCCCCC)[C@@H]1NC(C)=O [CS-8958] | 90% | <1.6 | <1.6 | 70% | <1.6 | <1.6 | <1.6 | 7.2±0.1 and 4.5±1.4 | <1.7 | limited |  |  |  |  | Virus titers in Brain, Day 6 [2]: 2.0±0.3 and <1.6; protection from the lethal infection (prophylaxis) [6]: significantly protected
CCC(CC)O[C@@H]1C=C(C(=O)O)C[C@H](N)[C@H]1NC(C)=O [Oseltamivir carboxylate] |  |  |  |  |  |  |  |  |  |  | 6.97 | 381.21 | 173.34 | 10 | recovery of NA activity [8]: almost fully recovered
CCOC(=O)C1=C[C@@H](OC(CC)CC)[C@H](NC(C)=O)[C@@H](N)C1 [Oseltamivir phosphate] | less than half | <1.6 | <1.6 | less than half | <1.6 | 3.1±0.3 and 2.6±0.1 and 3.2±1.2 and 3.3±0.9 | <1.6 | 7.5±0.2 and 7.4±0.2 and 7.4±0.1 and 7.2±0.1 | <1.7 | limited |  |  |  |  | mice saved from lethal infection [1]: 90%; Virus titers in Brain, Day 9 [2]: 4.8 and 4.7±0.4 and 3.7 and 5.1; Virus titers in Lungs, Day 3 [2]: 6.0±0.1 and 5.0±0.6 and 6.2±0.2; Virus titers in Lungs, Day 6 [2]: 5.2±0.1 and 5.5±0.4 and 3.8±0.5 and 6.4±0.6; Virus titers in Lungs, Day 9 [2]: 4.9±1.8 and 4.7±0.6 and 4.7±1.4 and 6.1; Virus titer in Brain, Day 6 [3]: 2.6 and <1.6; Virus titer in Lungs, Day 3 [3]: 5.5±0.7 and 4.3±1.9 and 3.2±2.9 and 5.8±0.8; Virus titer in Lungs, Day 6 [3]: 5.6±0.4 and 6.1±0.2 and 6.0±0.0 and 6.0±0.4; mice saved from lethal infection [4]: 50%; Virus titers in Lungs, Day 3 [5]: 7.5±0.1 and 7.2±0.1 and 7.1±0.2
CC(=O)N[C@H]1[C@H]([C@H](O)[C@H](O)CO)OC(C(=O)O)=C[C@@H]1N=C(N)N [Zanamivir] |  |  |  |  |  |  |  |  |  |  | 2.10 | 184.10 | 140.10 | 0.07 | 
Peramivir |  |  |  |  |  |  |  |  |  |  | 0.19 | 180.66 | 43.10 |  | Slope difference [7]: -48.81; Slope difference [8]: -773.42; Slope difference [9]: -456.52
